Data on one compound can be found in patent publication US9732078B2, “Therapeutic use of imidazopyridine derivatives” (SANOFI, priority 2012, dated 2017).

The structures appear in SMILES notation.

In series [1] the test system is TCC97-7 bladder cancer tumour cells carrying the Ser249Cys mutation of FGF receptor 3. Kind of series: Inhibition of serum-induced proliferation of TCC97-7 bladder cancer cells (count of Hoechst 33342-labelled nuclei after 3 days). Format: cell-based. The following applies: 72 h, TCC97-7 cells in presence of serum. As to the method:
To do this, 2000 cells are seeded in the morning in 50 μl of complete medium (Ham-F/12, 1% FCS, 2 mM glutamine, non-essential amino acids, sodium pyruvate, 1% insulin/transferrin/selenium, hydrocortisone). In the evening, 50 μl of the various compounds are added at 0.02, 0.2, 2 or 20 μM after dilution in complete culture medium in order to obtain final concentrations of 0.01, 0.1, 1 and 10 μM. After 3 days, the cell proliferation is evaluated by measuring the number of nuclei at the bottom of each well corresponding to a number of cells. The nuclei are detected by means of labelling with Hoechst 33342 (Invitrogen, ref H3570). 100 μl of Hoechst 33342 diluted to 1/5000th in PBS are added to each well for 30 min at ambient temperature on non-fixed cells. The nuclei are detected by fluorescence at 350 nm at ×2 magnification with an Operetta (PerkinElmer) using the Acapella (PerkinElmer) imaging software and analysed using the Columbus (PerkinElmer) image analysis software. The percentage inhibition of the cell proliferation is calculated by considering the number of nuclei present in the wells in which the TCC97-7 cells are cultured in the absence of FGF-R antagonists to be 0% inhibition. 100% inhibition would correspond to a well no longer containing cells.

A short description of series [2]: Cytotoxic effect: percentage of permeabilized (very fluorescent, Hoechst 33342) TCC97-7 cells. Format: cell-based. The following applies: human, read-out: Cytotoxicity (% of permeable cells). As to the method: In parallel to their antiproliferative capacity, the potential cytotoxic effect of the FGF-R antagonists is measured by means of quantifying the number of cells of which the membranes are permeabilized. The appearance of pores in the plasma membrane of the cells corresponds to a state of cell death which enables the Hoechst 33342 to penetrate more easily into the cell. This is reflected by a very strong increase in the amount of fluorescence detected in the nuclei. The percentage of cells in a state of cell death is calculated by the ratio between the number of very fluorescent nuclei to the total number of nuclei, multiplied by 100. The observations are carried out in the same way as the quantification of the nuclei for the cell proliferation.

Series [3] concerns TCC97-7 bladder cancer cells carrying the Ser249Cys mutation of FGF receptor 3. Kind of series: Reduction of intracellular ATP content of TCC97-7 cells (Cell Titer-Glo, 3 days, serum-supplemented medium). Format: cell-based. The following applies: 72 h, TCC97-7 cells in presence of serum, read-out: Inhibition of the amount of intracellular ATP (%). On the procedure:
Evaluation of the Capacity of the FGF-R Antagonists to Reduce the ATP Content of TCC97-7 Bladder Cancer Cells Carrying the Ser249Cys Mutation of FGF Receptor 3, Cultured in a Serum-Supplemented Medium
To do this, 3000 cells are seeded in 50 μl of complete medium (Ham-F/12, 1% FCS, […], non-essential amino acids, sodium pyruvate, 1% insulin/transferrin/selenium, hydrocortisone). 16 hours later, 50 μl of the various compounds are added at 0.2, 2, 20 and 60 μM after dilution in complete culture medium in order to obtain final concentrations of 0.1, 1, 10 and 30 μM. After 3 days, the ATP content of the cells is measured using the Cell Titer-Glo® Luminescent Cell Viability Assay kit (Promega, France) according to the supplier's recommendations. The percentage inhibition of the amount of intracellular ATP is calculated by considering the ATP content of the cells cultured in the absence of antagonist to be 0% inhibition. 100% inhibition would correspond to a well in which the ATP content is zero.
A general note: Cellular ATP, detected with luciferase, serves as a proxy for viable cell number.

As to `CN(C)CCNC(=O)c1cccc(-c2nc(C(=O)c3ccc4c(c3)c(=O)n(Cc3ccc(F)cc3)c(=O)n4C)n3ccccc23)c1.Cl` [compound 116, N-[2-(dimethylamino)ethyl]-3-(3-{[3-(4-fluorobenzyl)-1-methyl-2,4-dioxo-1,2,3,4-tetrahydroquinazolin-6-yl]carbonyl}imidazo[1,5-a]pyridin-1-yl)benzamide hydrochloride], the melting point came to 247 °C. Also, the inhibition at 0.01 µM in series [1] (0.01 μM) was -1%. The inhibition at 0.1 µM in series [1] (0.1 μM) was -3%. The inhibition at 1 µM in series [1] (1 μM) came to 22%. Further, the inhibition at 10 µM in series [1] (10 μM) was 83%. Besides, the cytotoxicity at 3 days, 0.01 µM in series [2] (0.01 μM) stood at 2%. Further, the cytotoxicity at 3 days, 0.1 µM in series [2] (0.1 μM) was determined as 2%. In addition, the cytotoxicity at 3 days, 1 µM in series [2] (1 μM) was 2%. Further, the cytotoxicity at 3 days, 10 µM in series [2] (10 μM) was 3%. Besides, the inhibition at 0.1 µM in series [3] (0.1 μM) came out at 6%. Also, the inhibition at 1 µM in series [3] (1 μM) came to 9%. Further, the inhibition at 10 µM in series [3] (10 μM) was 95%.

One may read the melting point as the temperature of the solid-liquid transition. As usually defined, the inhibition is the relative decrease from the control value, in per cent.
